The source of these data is patent US11844811B2, “Methods and compositions for alleviating respiratory dysfunction” (MYFITSTRIP LLC, priority 2018, dated 2023).

For data set [1] the following is noted: hypertensives; 5-7 mM (310-434 mg/L/day) nitrate; cited from earlier work.

Each structure is given as a SMILES string. Read-outs that look alike come from different tables or passages of the source.

In the case of `O=[N+]([O-])[O-].[K+]` [KNO3, potassium nitrate], the salivary nitrite result (ingestion) is “elevated”. Also, the “Salivary NO2” value reads like this: (subject 1, 500 mg KNO3 (5 mg/Kg) at 8:00, time 1:00PM) 120 µM; (subject 1, 500 mg KNO3 (5 mg/Kg) at 8:00, time 2:00) 110 µM; (subject 1, 500 mg KNO3 (5 mg/Kg) at 8:00, time 2:45) under 20 µM; (subject 1, 500 mg KNO3 (5 mg/Kg) at 8:00, time 9:00) 400 µM; (subject 1, 500 mg KNO3 (5 mg/Kg) at 8:00, time 11:00) 220 µM; (subject 1, 500 mg KNO3 (5 mg/Kg) at 8:00, time 11:40) 110 µM. Moreover, the “Salivary NO2” value is, setting by setting: (subject 2, 1,000 mg KNO3 (12 mgNO3/Kg) at 10:00, time 3:00) 220 µM; (subject 2, 1,000 mg KNO3 (12 mgNO3/Kg) at 10:00, time 4:00) 110 µM; (subject 2, 1,000 mg KNO3 (12 mgNO3/Kg) at 10:00, time 5:45) 20 µM; (subject 2, 1,000 mg KNO3 (12 mgNO3/Kg) at 10:00, time 10:30) 200 µM.

Regarding `O=C1O[C@H]([C@@H](O)CO)C(O)=C1O` [ascorbate], the “nitric oxide bioavailability (salivary nitrite as surrogate marker)” value (human, in vivo) is “boosted and extended”.

On to `O=[N+]([O-])O` [nitrate], for which, in data set [1], the “reduction of systolic blood pressure” value is on record as 4-11 mmHg.
